Measured values reported in publication PMC12037410, “Pharmacological targeting of BMAL1 modulates circadian and immune pathways” (Nature Chemical Biology, 2025).

What follows are compounds tested against BMAL1 (Homo sapiens, UniProt O00327). Conditions: dTmB; binder.
BMAL1, sequence (O00327 338-449): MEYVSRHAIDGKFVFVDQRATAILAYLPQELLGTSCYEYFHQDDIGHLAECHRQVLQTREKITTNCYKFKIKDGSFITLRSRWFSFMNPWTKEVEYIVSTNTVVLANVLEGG
Design: PASB domain (residues 338–449); Protein thermal shift (PTS) fragment screen on recombinant human BMAL1(PASB), shift of melting temperature
In the case of `O=C(O)CCc1ncc(-c2ccccc2)o1` [Prestw-Frag-2693, Compound 126], the “Bmal1(PASB) dTmB” value is reported as 0.10 °C. In the case of `Cc1nc(-c2ccccc2)c(-c2ccccc2)o1` [Prestw-Frag-2695, Compound 471], the “Bmal1(PASB) dTmB” value is reported as -2.25 °C. With `COc1ccc(C(C)=O)c(O)c1` [Prestw-Frag-2701, Compound 250] the “Bmal1(PASB) dTmB” value was 0.06 °C. `Oc1ccccc1C1CCCC1` [Prestw-Frag-2706, Compound 472] was tested, and the “Bmal1(PASB) dTmB” value was -2.14 °C. `CN1C(=O)CCC1=O` [Prestw-Frag-2713, Compound 293] was tested, and the “Bmal1(PASB) dTmB” value was 0.17 °C. `NC(N)=NC(N)=Nc1ccc(Cl)cc1` [Prestw-Frag-2722, Compound 143] was tested, and the “Bmal1(PASB) dTmB” value was -0.89 °C. For `CCCOc1ccc(C(=O)OCC)cc1N` [Prestw-Frag-2724, Compound 416], the “Bmal1(PASB) dTmB” value was -1.52 °C. In the case of `CS(=O)(=O)Nc1ccccc1` [Prestw-Frag-2755, Compound 281], the “Bmal1(PASB) dTmB” value is reported as -0.10 °C. For `O=c1ccn([C@H]2C[C@H](O)[C@@H](CO)O2)c(=O)[nH]1` [Prestw-Frag-2769, Compound 275], the “Bmal1(PASB) dTmB” value was 0.09 °C. For `CCN(CC)CCOC(=O)C1(c2ccccc2)CCCC1` [Prestw-Frag-2774, Compound 413], the “Bmal1(PASB) dTmB” value was -1.85 °C. `c1ccc2c3c([nH]c2c1)CCCC3` [Prestw-Frag-2780, Compound 46] was tested, and the “Bmal1(PASB) dTmB” value was -0.19 °C. `CCNC(=O)c1cccnc1` [Prestw-Frag-2794, Compound 205] was tested, and the “Bmal1(PASB) dTmB” value was 0.17 °C. With `COC(=O)c1c[nH]c2ccccc12` [Prestw-Frag-2799, Compound 456] the “Bmal1(PASB) dTmB” value was -0.14 °C. In the case of `OC1CCN(c2ccccc2F)CC1` [Prestw-Frag-2803, Compound 151], the “Bmal1(PASB) dTmB” value is reported as -0.09 °C. For `Cc1ccccc1Nc1ncccc1C(=O)O` [Prestw-Frag-2806, Compound 441], the “Bmal1(PASB) dTmB” value was 0.29 °C. For `O=C(O)c1cccnc1Nc1cccc(Cl)c1` [Prestw-Frag-2807, Compound 229], the “Bmal1(PASB) dTmB” value was -0.34 °C. With `NCCCOc1cccc(CN2CCCCC2)c1` [Prestw-Frag-2808, Compound 156] the “Bmal1(PASB) dTmB” value was -1.04 °C. With `Oc1cccc(CN2CCCCC2)c1` [Prestw-Frag-2809, Compound 115] the “Bmal1(PASB) dTmB” value was -0.43 °C. In the case of `CCNC(=O)c1ccc(Cl)cc1` [Prestw-Frag-2818, Compound 347], the “Bmal1(PASB) dTmB” value is reported as -0.36 °C. In the case of `Nc1cccc(O)c1` [Prestw-Frag-2826, Compound 83], the “Bmal1(PASB) dTmB” value is reported as -0.56 °C. In the case of `C[C@@H](O)c1cc(C(F)(F)F)cc(C(F)(F)F)c1` [Prestw-Frag-2849, Compound 236], the “Bmal1(PASB) dTmB” value is reported as -0.34 °C. For `Clc1cccc(N2CCNCC2)c1Cl` [Prestw-Frag-2853, Compound 42], the “Bmal1(PASB) dTmB” value was -1.63 °C. For `O=C1CCc2ccc(O)cc2N1` [Prestw-Frag-2854, Compound 80], the “Bmal1(PASB) dTmB” value was -0.98 °C. For `c1ccc(C(c2ccccc2)n2ccnc2)cc1` [Prestw-Frag-2868, Compound 465], the “Bmal1(PASB) dTmB” value was -6.29 °C. `c1ccc(-c2nn[nH]n2)cc1` [Prestw-Frag-2887, Compound 426] was tested, and the “Bmal1(PASB) dTmB” value was 0.51 °C. For `Oc1cc(Cl)c(Cl)cc1Cl` [Prestw-Frag-2898, Compound 59], the “Bmal1(PASB) dTmB” value was -0.02 °C. In the case of `O=C(c1ccccc1)c1ccc(Br)cc1` [Prestw-Frag-2912, Compound 22], the “Bmal1(PASB) dTmB” value is reported as -1.94 °C. In the case of `CC(C)(C)OC(=O)/C=C/c1ccccc1` [Prestw-Frag-2947, Compound 382], the “Bmal1(PASB) dTmB” value is reported as -0.17 °C. With `c1ccc(C2CNCCO2)cc1` (stereo not shown) [Prestw-Frag-2958, Compound 322] the “Bmal1(PASB) dTmB” value was -0.55 °C. With `COc1ccc(CC(=O)O)cc1` [Prestw-Frag-2960, Compound 158] the “Bmal1(PASB) dTmB” value was 0.16 °C. For `Nc1nc2c(s1)CCCC2` [Prestw-Frag-2972, Compound 480], the “Bmal1(PASB) dTmB” value was -5.59 °C. `CCOc1ccccc1OCC1CNCCO1` (stereo not shown) [Prestw-Frag-2992, Compound 332] was tested, and the “Bmal1(PASB) dTmB” value was -0.48 °C. In the case of `CCOc1ccccc1O` [Prestw-Frag-2995, Compound 314], the “Bmal1(PASB) dTmB” value is reported as -0.47 °C. With `c1ccc(-n2ccc3ccccc32)cc1` [Prestw-Frag-3011, Compound 447] the “Bmal1(PASB) dTmB” value was -0.07 °C. `CNS(=O)(=O)Cc1ccc2[nH]cc(CCN)c2c1` [Prestw-Frag-3017, Compound 50] was tested, and the “Bmal1(PASB) dTmB” value was 0.72 °C. In the case of `c1ccc2nccnc2c1` [Prestw-Frag-3033, Compound 315], the “Bmal1(PASB) dTmB” value is reported as 0.23 °C. With `O=C1c2nccnc2C(O)N1c1ccc(Cl)cn1` (stereo not shown) [Prestw-Frag-3046, Compound 93] the “Bmal1(PASB) dTmB” value was -0.98 °C. `Cc1ccc(N)c(C#N)c1` [Prestw-Frag-3060, Compound 394] was tested, and the “Bmal1(PASB) dTmB” value was -0.18 °C. `OCCc1ccc(Cl)cc1` [Prestw-Frag-3062, Compound 418] was tested, and the “Bmal1(PASB) dTmB” value was 0.02 °C. `O=C1c2ccc(Cl)cc2CCc2cccnc21` [Prestw-Frag-3073, Compound 431] was tested, and the “Bmal1(PASB) dTmB” value was -4.79 °C. For `CCN(CC)C(=O)/C=C/c1ccccc1` [Prestw-Frag-3088, Compound 429], the “Bmal1(PASB) dTmB” value was -1.63 °C. `O=C(O)/C=C/c1cnc[nH]1` [Prestw-Frag-3090, Compound 19] was tested, and the “Bmal1(PASB) dTmB” value was -1.08 °C. For `OCc1ccc(F)cc1F` [Prestw-Frag-3100, Compound 349], the “Bmal1(PASB) dTmB” value was 0.05 °C. `OCCn1cncn1` [Prestw-Frag-3101, Compound 350] was tested, and the “Bmal1(PASB) dTmB” value was 0.19 °C. In the case of `CCCCc1nc(Cl)c(CO)[nH]1` [Prestw-Frag-3114, Compound 336], the “Bmal1(PASB) dTmB” value is reported as 0.07 °C. For `CCN(CC)CCNC(=O)c1ccc(N)c(Cl)c1` [Prestw-Frag-3120, Compound 278], the “Bmal1(PASB) dTmB” value was -0.15 °C. For `c1ccc2c(c1)CCCN2` [Prestw-Frag-3137, Compound 43], the “Bmal1(PASB) dTmB” value was 0.06 °C. In the case of `Fc1cccnc1N1CCCC1` [Prestw-Frag-3150, Compound 24], the “Bmal1(PASB) dTmB” value is reported as -0.14 °C. `COc1ccc2c(c1)CCCC2` [Prestw-Frag-3188, Compound 32] was tested, and the “Bmal1(PASB) dTmB” value was -0.52 °C. For `Nc1nc(N)nc(-c2ccccc2)n1` [Prestw-Frag-3190, Compound 387], the “Bmal1(PASB) dTmB” value was -0.27 °C. With `O=C(Cc1ccccc1F)C1CC1` [Prestw-Frag-3198, Compound 60] the “Bmal1(PASB) dTmB” value was -1.49 °C. For `Cc1ccccc1C(=O)Nc1ccccc1` [Prestw-Frag-3202, Compound 39], the “Bmal1(PASB) dTmB” value was -1.32 °C. With `Cc1cc(=O)n(-c2ccc(C)c(C)c2)[nH]1` [Prestw-Frag-3221, Compound 342] the “Bmal1(PASB) dTmB” value was 1.18 °C. In the case of `Oc1ccccc1OCC(F)(F)F` [Prestw-Frag-3225, Compound 113], the “Bmal1(PASB) dTmB” value is reported as -0.44 °C. In the case of `Cc1cn(-c2cc(N)cc(C(F)(F)F)c2)cn1` [Prestw-Frag-3241, Compound 458], the “Bmal1(PASB) dTmB” value is reported as -2.09 °C. For `Cc1cc(C)[nH]c(=O)n1` [Prestw-Frag-3247, Compound 190], the “Bmal1(PASB) dTmB” value was 0.01 °C. With `O=C(O)CC(c1ccccc1)c1ccccc1` [Prestw-Frag-3250, Compound 130] the “Bmal1(PASB) dTmB” value was -0.49 °C. In the case of `FC(F)(F)c1nnc2n1CCNC2` [Prestw-Frag-3253, Compound 136], the “Bmal1(PASB) dTmB” value is reported as 0.11 °C. With `CN1CCN(c2cc(N)ncn2)CC1` [Prestw-Frag-3262, Compound 191] the “Bmal1(PASB) dTmB” value was -0.17 °C. With `Nc1ccn([C@H]2C[C@H](O)[C@@H](CO)O2)c(=O)n1` [Prestw-Frag-3264, Compound 107] the “Bmal1(PASB) dTmB” value was -0.01 °C. `Nc1ncn([C@@H]2O[C@H](CO)[C@@H](O)[C@H]2O)c(=O)n1` [Prestw-Frag-3302, Compound 121] was tested, and the “Bmal1(PASB) dTmB” value was -0.02 °C.
